Laboratory results published in patent US7182965B2, “Soluble composition containing sporopollenin and the use thereof” (priority 2002, dated 2007).

Test system: skin
Assay: Skin compatibility, 48 h occlusive patch test, modified Draize evaluation
Conditions: 1% in water, 48 hours under occlusion, 50 test subjects
Description: In this procedure, the GLP Guidelines and the recommendations of the COLIPA work group (Walker A. P. et al.: Test Guidelines for Assessment of Skin Compatibility of Cosmetic Finished Products in Man, Food and Chemical Toxicology 34, 1996, pages 651 to 660) were observed.
The model noxious substance sodium lauryl sulfate at a concentration of 1% in water served as the positive control. Water itself served as the negative control.
The evaluation of the test reaction was carried out after 48 and 72 hours in accordance with the modified Draize test.

With CCCCCCCCCCCCOS(=O)(=O)[O-].[Na+] [SDS, sodium lauryl sulfate] the “positive reaction, number of test subjects” value was 14 test subjects.
